According to the NIST ThermoML archive (doi:10.1021/je200681k):
Numbers after ± are expanded uncertainties.

Columns and labels:
[1] = Molar enthalpy of transition or fusion; conditions: Crystal; DSC
[2] = Crystal; DTA

Row | Molar enthalpy of transition or fusion [1] [kcal/mol] | Normal melting temperature [2] [°C] | Compound
1 | 7.41 ± 0.335 | 85.46 ± 0.53 | CC(CC(=O)O)CC(=O)O [3-methylpentanedioic acid]
2 | 4.04 ± 0.167 | 121.33 ± 0.53 | CC(C(=O)O)C(C)C(=O)O (stereo not drawn) [2,3-dimethyl-1,4-butanedioic acid]
3 | 4.47 ± 0.172 | 122.93 ± 0.53 | O=C(O)c1ccccc1 [benzoic acid]
4 | 6.88 ± 0.287 | 104.2 ± 0.53 | O=C(O)CCCCCC(=O)O [1,7-heptanedioic acid]
